From patent publication US20100311714A1, “1H-IMIDAZO[4,5-c]QUINOLINONE COMPOUNDS” (priority 2009, published 2010)

Key:
[1] = Parallel Artificial Membrane Permeability Assay (PAMPA) at pH 6.8; type: physicochemical
Procedure, shortened: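 Reported as log Pe, membrane permeability was determined by parallel artificial membrane assay at pH 6.8 per Wohnsland–Faller.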

PI3K beta = biological target: T1, PI3K beta (Homo sapiens, UniProt P42338); assay: PI3K beta kinase assay (Kinase-Glo luminescence); type: biochemical; details: read-out: EPK_PI3Kbeta/IC50
T1 construct: for the full-length p110-b subunit are generated and fused by overlapping PCR; His tag (C); made in house; host or cells: baculovirus BV949; Tn5 (Trichoplusia ni) or TiniPro insect cells
Procedure, shortened: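 Kinase-Glo luminescence read out ATP left after a 60-min room-temperature reaction, started with ATP (1 μM final) on 25 nM His-tagged p85 iSH2–p110β (BV949) plus 10 μg/mL PI substrate in pH 7.5 Tris buffer. Percent inhibition at eight concentrations was fitted to a four-parameter logistic model for IC50.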

mTOR = biological target: T2, mTOR (Homo sapiens, UniProt P42345); assay: Biochemical assay for m-TOR by TR-FRET; details: read-out: EPK_mTOR/IC50
T2 construct: purchased Invitrogen Corporation (Carlsbad/Calif., USA) PV4753
Procedure, shortened: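 mTOR (0.5 nM) phosphorylates GFP-4EBP1 (400 nM) with 8 μM ATP at rt in 50 mM HEPES pH 7.5, 10 mM MnCl2, 50 mM NaCl, 1 mM EGTA, 1 mM DTT; compounds 0.003–10 μM final. EDTA stop with Tb-anti-p4EBP1[pT46] antibody (0.5 nM); TR-FRET read after 15 min against no-enzyme and vehicle controls.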

T1 sequence (P42338 with tags, fused parts or gaps limits assumed): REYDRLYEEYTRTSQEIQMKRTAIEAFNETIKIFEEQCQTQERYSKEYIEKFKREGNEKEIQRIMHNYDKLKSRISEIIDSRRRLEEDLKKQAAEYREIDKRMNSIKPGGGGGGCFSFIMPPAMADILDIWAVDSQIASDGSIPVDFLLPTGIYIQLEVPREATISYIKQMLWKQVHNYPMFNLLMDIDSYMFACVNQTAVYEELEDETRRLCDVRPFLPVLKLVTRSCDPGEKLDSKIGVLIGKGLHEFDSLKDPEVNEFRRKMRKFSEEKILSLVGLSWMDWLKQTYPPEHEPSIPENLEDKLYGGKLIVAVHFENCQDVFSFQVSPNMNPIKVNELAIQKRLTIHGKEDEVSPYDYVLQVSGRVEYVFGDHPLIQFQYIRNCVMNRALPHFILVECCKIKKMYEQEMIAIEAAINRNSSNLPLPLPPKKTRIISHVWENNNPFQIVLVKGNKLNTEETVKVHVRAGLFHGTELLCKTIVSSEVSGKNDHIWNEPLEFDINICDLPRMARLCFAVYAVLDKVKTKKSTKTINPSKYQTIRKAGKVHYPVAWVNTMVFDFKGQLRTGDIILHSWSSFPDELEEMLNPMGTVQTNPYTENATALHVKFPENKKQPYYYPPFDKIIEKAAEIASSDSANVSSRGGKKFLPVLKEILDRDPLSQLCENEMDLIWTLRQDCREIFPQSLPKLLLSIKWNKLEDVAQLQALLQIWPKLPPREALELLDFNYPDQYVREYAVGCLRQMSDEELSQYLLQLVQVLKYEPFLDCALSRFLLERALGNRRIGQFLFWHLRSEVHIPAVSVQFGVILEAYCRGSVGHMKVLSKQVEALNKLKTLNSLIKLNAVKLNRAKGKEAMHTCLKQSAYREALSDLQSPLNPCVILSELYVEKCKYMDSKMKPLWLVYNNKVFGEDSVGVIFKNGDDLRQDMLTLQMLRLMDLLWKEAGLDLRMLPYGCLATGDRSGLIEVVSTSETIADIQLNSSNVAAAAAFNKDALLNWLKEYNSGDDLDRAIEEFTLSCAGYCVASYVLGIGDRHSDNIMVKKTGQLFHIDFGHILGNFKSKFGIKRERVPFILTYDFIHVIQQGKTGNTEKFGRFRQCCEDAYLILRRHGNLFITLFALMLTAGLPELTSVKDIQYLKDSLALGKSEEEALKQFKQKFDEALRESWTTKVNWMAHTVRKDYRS
T2 sequence (P42345 1360-2549 limits assumed): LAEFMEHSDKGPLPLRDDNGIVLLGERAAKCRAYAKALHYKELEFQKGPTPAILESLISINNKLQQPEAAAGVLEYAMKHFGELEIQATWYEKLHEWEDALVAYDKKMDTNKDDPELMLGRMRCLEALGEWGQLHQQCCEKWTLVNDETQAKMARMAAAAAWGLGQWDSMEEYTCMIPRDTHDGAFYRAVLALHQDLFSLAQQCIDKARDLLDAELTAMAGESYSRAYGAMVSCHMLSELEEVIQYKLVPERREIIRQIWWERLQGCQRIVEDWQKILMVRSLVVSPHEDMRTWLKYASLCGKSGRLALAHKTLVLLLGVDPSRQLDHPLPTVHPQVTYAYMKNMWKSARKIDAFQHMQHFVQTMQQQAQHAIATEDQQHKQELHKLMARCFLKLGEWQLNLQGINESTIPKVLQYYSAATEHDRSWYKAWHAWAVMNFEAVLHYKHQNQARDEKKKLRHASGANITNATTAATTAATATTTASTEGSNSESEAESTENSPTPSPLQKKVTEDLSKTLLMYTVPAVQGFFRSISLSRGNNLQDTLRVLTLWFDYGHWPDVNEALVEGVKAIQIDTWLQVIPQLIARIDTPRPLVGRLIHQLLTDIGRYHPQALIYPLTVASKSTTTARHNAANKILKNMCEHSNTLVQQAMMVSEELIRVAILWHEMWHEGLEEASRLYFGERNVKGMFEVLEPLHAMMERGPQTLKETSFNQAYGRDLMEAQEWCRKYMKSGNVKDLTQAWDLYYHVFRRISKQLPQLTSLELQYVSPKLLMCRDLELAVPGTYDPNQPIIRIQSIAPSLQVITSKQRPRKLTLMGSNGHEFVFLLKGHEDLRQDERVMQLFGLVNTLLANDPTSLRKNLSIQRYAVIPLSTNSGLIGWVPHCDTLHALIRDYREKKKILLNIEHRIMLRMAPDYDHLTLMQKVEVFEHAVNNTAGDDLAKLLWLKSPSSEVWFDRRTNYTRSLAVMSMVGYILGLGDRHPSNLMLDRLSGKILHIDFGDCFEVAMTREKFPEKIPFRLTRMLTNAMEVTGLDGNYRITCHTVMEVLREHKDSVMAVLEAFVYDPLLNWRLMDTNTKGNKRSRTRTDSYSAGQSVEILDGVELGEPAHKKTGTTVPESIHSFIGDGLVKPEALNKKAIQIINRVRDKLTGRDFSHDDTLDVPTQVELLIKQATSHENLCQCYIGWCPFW

Row | HT-Perm logPe pH6.8 [1] | IC50 (PI3K beta) [nM] | IC50 (mTOR) [nM] | Compound
1 | −3.7 | 42 | 67 | CNc1ncc(-c2ccc3ncc4c(c3c2)n(-c2ccc(F)nc2C)c(=O)n4C)cc1C(F)(F)F [Example 7.13, 1-(6-Fluoro-2-methyl-pyridin-3-yl)-3-methyl-8-(6-methylamino-5-trifluoromethyl-pyridin-3-yl)-1,3-dihydro-imidazo[4,5-c]quinolin-2-one]
2 | −4.1 | < 3 | 42 | COc1cc(-c2ccc3ncc4c(c3c2)n(-c2ccc(N(C)C)nc2C)c(=O)n4C)cnc1CO [Example 19.4, 1-(6-Dimethylamino-2-methyl-pyridin-3-yl)-8-(6-hydroxymethyl-5-methoxy-pyridin-3-yl)-3-methyl-1,3-dihydro-imidazo[4,5-c]quinolin-2-one]
3 | −3.8 | 9 | 17 | Cc1ccc(-n2c(=O)n(C)c3cnc4ccc(-c5cnc(N)c(C(F)(F)F)c5)cc4c32)c(C)n1 [Example 14.5, 8-(6-Amino-5-trifluoromethyl-pyridin-3-yl)-1-(2,6-dimethyl-pyridin-3-yl)-3-methyl-1,3-dihydro-imidazo[4,5-c]quinolin-2-one]
4 | −3.7 | 448 | 71 | COCCN(C)c1ccc(-n2c(=O)n(C)c3cnc4ccc(-c5cnc(N(C)C)nc5)cc4c32)c(C)n1 [Example 15.5, 8-(2-Dimethylamino-pyrimidin-5-yl)-1-{6-[(2-methoxy-ethyl)-methyl-amino]-2-methyl-pyridin-3-yl}-3-methyl-1,3-dihydro-imidazo[4,5-c]quinolin-2-one]
5 | −4.1 | 50 | 6 | CCNc1cc(-c2ccc3ncc4c(c3c2)n(-c2ccc(C)nc2C)c(=O)n4C)cnc1C [Example 14.6, 1-(2,6-Dimethyl-pyridin-3-yl)-8-(5-ethylamino-6-methyl-pyridin-3-yl)-3-methyl-1,3-dihydro-imidazo[4,5-c]quinolin-2-one]
6 | −3.6 | 41 | 13 | CCNc1cc(-c2ccc3ncc4c(c3c2)n(-c2ccc(OC)nc2Cl)c(=O)n4C)cnc1C [Example 18.1, 1-(2-Chloro-6-methoxy-pyridin-3-yl)-8-(5-ethylamino-6-methyl-pyridin-3-yl)-3-methyl-1,3-dihydro-imidazo[4,5-c]quinolin-2-one]
7 | −3.8 | 793 | 120 | CCOc1ccc(-c2ccc3ncc4c(c3c2)n(-c2ccc(N(C)CCOC)nc2C)c(=O)n4C)cn1 [Example 15.3, 8-(6-Ethoxy-pyridin-3-yl)-1-{6-[(2-methoxy-ethyl)-methyl-amino]-2-methyl-pyridin-3-yl}-3-methyl-1,3-dihydro-imidazo[4,5-c]quinolin-2-one]
8 | −4.1 | 154 | 10 | CCN(C)c1ccc(-n2c(=O)n(C)c3cnc4ccc(-c5ccc(NC)nc5)cc4c32)c(C)n1 [Example 12.1, 1-[6-(Ethyl-methyl-amino)-2-methyl-pyridin-3-yl]-3-methyl-8-(6-methylamino-pyridin-3-yl)-1,3-dihydro-imidazo[4,5-c]quinolin-2-one]
